Results from patent publication US8859529B2, “Compounds for the treatment of inflammatory disorders” (Merck Sharp & Dohme Corp., priority 2008, dated 2014).

Experiments:
[1] = system: TNF-α production from human whole blood; assay: Inhibition of TNF-α production from human whole blood (hWBA); type: cell-based; details: human whole blood diluted 1:1, 1 h pre-incubation, LPS, 3.5 h, TNF-α by ELISA; N/A = Not Active
Method: The compounds' ability to inhibit TACE activity can also be determined in human whole blood using the assay conditions described n Example 15 below.
Human whole blood was diluted 1:1 with serum free medium (RPMI, L-glutamine, Pen-Strep, HEPES) and incubated with a test compound in a final volume of 360 μl for 1 h at 37° C. Forty microliters of LPS (10 μg/mL) was then added. Supernatant was collected after 3.5 h incubation and the concentration of TNF-α was determined by ELISA (R&D Systems). The concentration of the test compound which inhibits 50% of the amount of TNF-α from the untreated control was determined.

[2] = Area under the curve determinations of plasma levels in rats (rrAUC); type: in vivo; details: rapid rat AUC of the drug (parent) in plasma; oral 10 mg/kg, fasted rats, blood 0.5-6 h post-dosing
Method: To gain insight into the pharmacokinetic properties of the compounds of formula (I), plasma levels of the compounds in rats were determined according to the protocol described in Korfmacher, W. A,; Cox, K. A.; Ng, K. J.; Veals, J.; Hsieh, Y.; Wainhaus, S.; Broske, L; Prelusky, D.; Nomeir, A.; White, R. E. Rapid Commun. Mass Spectrorn, 2001, 15, 335. Briefly, rats, after an overnight fast, were dosed orally with the test compound at a dose of 10 mg/kg in a 5 mL/kg dose volume. Blood was collected at 0.5, 1, 2, 3, 4, and 6 h post-dosing. Mass spectrometry using high performance liquid chromatography was used to identify and measure the concentrations of the test compounds in the plasma at the various time points. The parent ion of each test compound was used to identify and quantitate the compounds in plasma.

SMILES: COc1ccc2c(c1)C(=O)N(C[C@]1(c3cc4cnccc4o3)C(=O)N(COC(=O)c3ccccc3OC(C)=O)C(=O)N1C(C)=O)C2 [Compound 83]
- IC50 [1]: 0.931 µM
- PK (rrAUC) parent [2]: 0 µM·h

SMILES: COc1ccc2c(c1)C(=O)N(C[C@]1(c3cc4cnccc4o3)C(=O)N(COC(=O)OCC3COCO3)C(=O)N1C(=O)OCC1COCO1)C2 (stereo partly shown) [Compound 86]
- IC50 [1]: 5.41 µM
- PK (rrAUC) parent [2]: 0.056 µM·h
